Measured values as given in patent publication US5116833A, “Antibiotic C-3 dithioacetal-substituted carbapenem compounds, compositions, and methods of use thereof” (Bristol-Myers Squibb Company, priority 1990, dated 1992).
Converted amounts (≈) assume the structure as drawn.

Legend:
[1] = Half-life (T1/2) in solution at stated pH (chemical stability); format: physicochemical
S. pneumoniae A-9585 = assay: Protective effect in the oral treatment of infected mice, S. pneumoniae A-9585; format: in vivo; settings: Streptococcus pneumoniae, A9585, intraperitoneal challenge S. pneumoniae A-9585, 5 × 10^3 organisms, read-out: PD50/Treatment
Protocol: (§1) In order to illustrate the potent antibacterial activity and significant oral bioavailability of the carbapenems of the present invention, Tables I, II and III show data for in vitro activities (MIC), oral in vivo activities (PD50) and blood levels after oral administration of the representative drugs (Cmax, t1/2 and AUC), respectively.
(§2) The in vivo therapeutic efficacy of the representative compounds after oral administration to mice infected intraperitoneally with 0.5 ml of various bacterial suspension is shown in Table II. The values are given in PD50 (dose in mg/kg to give protection to 50% of the infected mice).

E. coli A-15119 = assay: Protective effect in the oral treatment of infected mice, E. coli A-15119; format: in vivo; settings: Escherichia coli, A15119, intraperitoneal challenge E. coli A-15119, 6 × 10^6 organisms, read-out: PD50/Treatment
Protocol: as §1, §2

P. mirabalis A-9900 = assay: Protective effect in the oral treatment of infected mice, P. mirabalis A-9900; format: in vivo; settings: Mus musculus, intraperitoneal challenge P. mirabalis A-9900, 4 × 10^6 organisms, read-out: PD50/Treatment
Protocol: as §1, §2

[2] = Blood levels and half-life after oral administration in mice; format: in vivo; settings: mouse, 50 mg/kg
Protocol: as §1, with “respectively. Blood levels and the half-life of selected compounds of the present invention after oral administration at 50 mg/kg in mice is shown in Table III.” for “respectively.”

Str. Pneu. A9525 = assay: Minimal Inhibitory Concentration, microtiter broth dilution, Str. Pneu. A9525; format: cell-based; settings: Nutrient broth, approximately 500,000 CFU/ml, 35° C. overnight
From the text: as §1
(§3) The determination was done by using microtiter broth dilution using Nutrient broth and final bacterial inoculum of approximately 500,000 CFU/ml from overnight cultures of the bacterium. The microtiter trays were then incubated at 35° C. overnight. The MIC's were determined in μg/ml as the lowest concentration of the drug which inhibits visible growth of the bacterium.

Staph. aur. PenR = assay: Minimal Inhibitory Concentration, microtiter broth dilution, Staph. aur. PenR; format: cell-based; settings: Nutrient broth, approximately 500,000 CFU/ml, 35° C. overnight
From the text: as §1, §3

E. coli A15119 = assay: Minimal Inhibitory Concentration, microtiter broth dilution, E. coli A15119; format: cell-based; settings: Escherichia coli, Nutrient broth, approximately 500,000 CFU/ml, 35° C. overnight
From the text: as §1, §3

Ps. aeur. A9843 = assay: Minimal Inhibitory Concentration, microtiter broth dilution, Ps. aeur. A9843; format: cell-based; settings: Nutrient broth, approximately 500,000 CFU/ml, 35° C. overnight
From the text: as §1, §3

## C[C@@H](O)[C@H]1C(=O)N2C(C(=O)O)=C(SCSCc3cccnc3)[C@H](C)[C@H]12 [Io, (4R,5S,6S)-6-[1'(R)-hydroxyethyl]-4-methyl-3-[[[[(pyridin-3-yl)methyl]thio]methyl]thio]-7-oxo-1-azabicyclo-[3.2.0]hept-2-ene-2-carboxylate]
[1]; pH 7.4, 37° C.
  half-life: 77 h

## C[C@@H](O)[C@H]1C(=O)N2C(C(=O)O)=C(SCSc3ccc(Cl)cc3)C[C@H]12 [Ij, (5R,6S)-6-[1'(R)-hydroxyethyl]-3-[[[(p-chlorophenyl)thio]methyl]thio]-7-oxo-1-azabicyclo[3.2.0]hept-2-ene-2-carboxylate]
[1]; pH 7.4
  half-life: 26 h

## CSCSC1=C(C(=O)O)N2C(=O)[C@H]([C@@H](C)O)[C@H]2[C@H]1C [Ib'']
[1]; pH 2
  half-life: 0.313 h
[1]; pH 7.4
  half-life: 75 h
S. pneumoniae A-9585
  ED50: 1.4 mg/kg
E. coli A-15119
  ED50: 3.5 mg/kg
P. mirabalis A-9900
  ED50: 3.6 mg/kg
[2]
  AUC: 21000 ng·h/mL
  Cmax: 27000 ng/mL
  half-life: 0.417 h

## C[C@@H](O)[C@H]1C(=O)N2C(C(=O)O)=C(SCSc3ccc(C(=O)NN)cc3)[C@H](C)[C@H]12 [Ibb, (4R,5S,6S)-3-[[[[(p-hydrazinocarbonyl)phenyl]thio]methyl]thio]-6-[1'(R)-hydroxyethyl]-4-methyl-7-oxo-1-azabicyclo[3.2.0]hept-2-ene-2-carboxylate]
S. pneumoniae A-9585
  ED50: 16.5 mg/kg
[2]
  Cmax: < 1000 ng/mL

## C[C@@H](O)[C@H]1C(=O)N2C(C(=O)O)=C(SCSc3ccc(Cl)cc3)[C@H](C)[C@H]12 [Ik, (4R,5S,6S)-6-[1' (R)-hydroxyethyl]-4-methyl-3-[[[(p-chlorophenyl)thio]methyl]thio]-7-oxo-1-azabicyclo[3.2.0]hept-2-ene-2-carboxylate]
[1]; pH 7.4
  half-life: 97 h
Str. Pneu. A9525
  MIC: 0.004 µg/mL (≈ 0.01 µM)
Staph. aur. PenR
  MIC: 0.03 µg/mL (≈ 0.075 µM)
E. coli A15119
  MIC: 2 µg/mL (≈ 5 µM)
Ps. aeur. A9843
  MIC: 63 µg/mL (≈ 158 µM)
[2]
  AUC: 34000 ng·h/mL
  Cmax: 40000 ng/mL
  half-life: 0.55 h

## C[C@@H](O)[C@H]1C(=O)N2C(C(=O)O)=C(SCSc3ccccn3)[C@H](C)[C@H]12 [If, Sodium (4R,5S,6S)-6-[1'(R)-hydroxyethyl]-4-methyl-3-[[[(pyridin-2-yl)thio]methyl]thio]-7-oxo-1-azabicyclo[3.2.0]hept-2-ene-2-carboxylate]
[1]; pH 2
  half-life: 0.6 h
[1]; pH 7.4
  half-life: 79 h

## C[C@@H](O)[C@H]1C(=O)N2C(C(=O)O)=C(SC[S+]([O-])Cc3cccnc3)[C@H](C)[C@H]12 (stereo partly drawn) [Ip, (4R,5S,6S)-6-[1'(R)-hydroxyethyl]-4-methyl-3-[[[[(pyridin-3-yl)methyl]sulfinyl]methyl]thio]-7-oxo-1-azabicyclo[3.2.0]hept-2-ene-2-carboxylate]
[1]; pH 7.4, 37° C.
  half-life: 43 h

## Cc1nnc(SCSC2=C(C(=O)O)N3C(=O)[C@H]([C@@H](C)O)[C@H]3[C@H]2C)o1 [Icc, (4R,5S,6S)-6-[1'(R)-hydroxyethyl]-4-methyl-3-[[[(5-methyl-1,3,4-oxadiazol-2-yl)thio]methyl]thio]-7-oxo-1-azabicyclo-[3.2.0]hept-2-ene-2-carboxylate]
Str. Pneu. A9525
  MIC: 0.001 µg/mL (≈ 0.00269 µM)
Staph. aur. PenR
  MIC: 0.03 µg/mL (≈ 0.0808 µM)
E. coli A15119
  MIC: 0.004 µg/mL (≈ 0.0108 µM)
Ps. aeur. A9843
  MIC: 32 µg/mL (≈ 86.2 µM)
S. pneumoniae A-9585
  ED50: 0.2 mg/kg
E. coli A-15119
  ED50: 1.4 mg/kg
[2]
  AUC: 11000 ng·h/mL
  Cmax: 20000 ng/mL
  half-life: 0.233 h

## C[C@@H](O)[C@H]1C(=O)N2C(C(=O)O)=C(SCSc3ccncc3)C[C@H]12 [Ic, Potassium or sodium (5R,6S)-6-[1'(R)-hydroxyethyl]-3-[[[(pyridin-4-yl)thio]methyl]thio]-7-oxo-1-azabicyclo[3.2.0]hept-2-ene-2-carboxylate]
[1]; pH 7.4
  half-life: 15 h

## CSC(C)SC1=C(C(=O)O)N2C(=O)[C@H]([C@@H](C)O)[C@H]2[C@H]1C (single isomer, unassigned) [Iv-B]
[1]; pH 2, 37° C.
  T1/2: 0.333 h
[1]; pH 7.4, 37° C.
  half-life: 56 h

## C[C@@H](O)[C@H]1C(=O)N2C(C(=O)O)=C(SCSc3cccnc3)C[C@H]12 [Ih, Sodium (5R,6S)-6-[1'(R)-hydroxyethyl]-3-[[[(pyridin-3-yl)thio]methyl]thio]-7-oxo-1-azabicyclo[3.2.0]hept-2-ene-2-carboxylate]
[1]; pH 2
  half-life: 0.0333 h
[1]; pH 7.4
  half-life: 22 h

## C[C@@H](O)[C@H]1C(=O)N2C(C(=O)O)=C(SCSc3c(F)c(F)c(F)c(F)c3F)[C@H](C)[C@H]12 [Ir, Sodium (4R,5S,6S)-6-[1'(R)-hydroxyethyl]-4-methyl-3-[[[(2,3,4,5,6-pentafluorophenyl)thio]methyl]thio]-7-oxo-1-azabicyclo[3.2.0]hept-2-ene-2-carboxylate]
[1]; pH 7.4, 37° C.
  half-life: 41 h

## C[C@@H](O)[C@H]1C(=O)N2C(C(=O)O)=C(SC[S+]([O-])c3ccc(Cl)cc3)[C@H](C)[C@H]12 (stereo partly drawn) [In, (4R,5S,6S)-3-[[[(p-chlorophenyl)sulfinyl]methyl]thio]-6-[1'(R)-hydroxyethyl]-4-methyl-7-oxo-1-azabicyclo[3.2.0]hept-2-ene-2-carboxylate]
[1]; pH 7.4, 37° C.
  half-life: 106 h

## CSC(C)SC1=C(C(=O)O)N2C(=O)[C@H]([C@@H](C)O)[C@H]2[C@H]1C (single isomer, unassigned) [Iv-A]
[1]; pH 2, 37° C.
  half-life: 0.333 h

## C[C@@H](O)[C@H]1C(=O)N2C(C(=O)O)=C(SCSc3ccc(Cl)c(Cl)c3)[C@H](C)[C@H]12 [Iq, (4R,5S,6S)-3-[[[(3,4-dichlorophenyl)thio]methyl]thio]-6-[1'(R)-hydroxyethyl]-4-methyl-7-oxo-1-azabicyclo-[3.2.0]hept-2-ene-2-carboxylate]
[1]; pH 7.4, 37° C.
  half-life: 99 h
E. coli A-15119
  ED50: 25 mg/kg
[2]
  AUC: 24000 ng·h/mL
  Cmax: 33000 ng/mL
  half-life: 0.417 h

## C[C@@H](O)[C@H]1C(=O)N2C(C(=O)O)=C(SCSc3ccncc3)[C@H](C)[C@H]12 [Ig, (4R,5S,6S)-6-[1'(R)-hydroxyethyl]-4-methyl-3-[[[(pyridin-4-yl)thio]methyl]thio]-7-oxo-1-azabicyclo[3.2.0]hept-2-ene-2-carboxylate]
[1]; pH 2
  half-life: 0.567 h

## C[C@@H](O)[C@H]1C(=O)N2C(C(=O)O)=C(SCSc3cccnc3)[C@H](C)[C@H]12 [Ii, (4R,5S,6S)-6-[1'(R)-hydroxyethyl]-4-methyl-3-[[[(pyridin-3-yl)thio]methyl]thio]-7-oxo-1-azabicyclo[3.2.0]hept-2-ene-2-carboxylate]
[1]; pH 2
  half-life: 0.583 h
[1]; pH 7.4
  half-life: 74 h

## C[C@@H](O)[C@H]1C(=O)N2C(C(=O)O)=C(SCSc3ccccn3)C[C@H]12 [Ie, Sodium (5R,6S)-6-[1'(R)-1-hydroxyethyl]-3-[[[(pyridin-2-yl)thio]methyl]thio]-7-oxo-1-azabicyclo[3.2.0]hept-2-ene-2-carboxylate]
[1]; pH 7.4
  half-life: 19 h

## C[C@@H](O)[C@H]1C(=O)N2C(C(=O)O)=C(SCSc3ccccc3)[C@H](C)[C@H]12 [Id, (4R,5S,6S)-6-[1'(R)-hydroxyethyl]-4-methyl-3-[[(phenylthio)methyl]thio]-7-oxo-1-azabicyclo[3.2.0]hept-2-ene-2-carboxylate]
[1]; pH 2
  half-life: 0.313 h
[1]; pH 7.4
  half-life: 100 h

## CSCSC1=C(C(=O)O)N2C(=O)[C@H]([C@@H](C)O)[C@H]2C1 [Ia, Potassium or Sodium (5R,6S)-6-[1'(R)-hydroxyethyl]-3-[[(methylthio)methyl]thio]-7-oxo-1-azabicyclo[3.2.0]hept-2-ene-2-carboxylate]
[1]; pH 7.4
  half-life: 20 h

## Cc1nnc(SCSC2=C(C(=O)O)N3C(=O)[C@H]([C@@H](C)O)[C@H]3[C@H]2C)s1 [Idd, (4R,5S,6S)-6-[1'(R)-hydroxyethyl]-4-methyl-3-[[[(5-methyl-1,3,4-thiadiazol-2-yl)thio]methyl]thio]-7-oxo-1-azabicyclo[3.2.0]hept-2-ene-2-carboxylate]
Str. Pneu. A9525
  MIC: 0.001 µg/mL (≈ 0.00258 µM)
Staph. aur. PenR
  MIC: 0.016 µg/mL (≈ 0.0413 µM)
E. coli A15119
  MIC: 0.008 µg/mL (≈ 0.0206 µM)
Ps. aeur. A9843
  MIC: 32 µg/mL (≈ 82.6 µM)
S. pneumoniae A-9585
  ED50: 0.3 mg/kg
E. coli A-15119
  ED50: 3.85 mg/kg
[2]
  AUC: 10000 ng·h/mL
  Cmax: 12000 ng/mL
  half-life: 0.4 h

## C[C@@H](O)[C@H]1C(=O)N2C(C(=O)O)=C(SC[S+](C)[O-])[C@H](C)[C@H]12 (some centres unmarked) [Im]
[1]; pH 7.4
  half-life: 46 h
